Reference: ChEMBL document CHEMBL3751836, “Novel peptidomimetics related to gonadotropin-releasing hormone (GnRH)” (Medchemcomm, 2015)
The source made the active and inactive calls. The rule behind the calls is not given here.

Tests used:
[1] = biological target: T1, Gonadotropin-releasing hormone receptor (Homo sapiens) (UniProt P30968); assay: (§1) Displacement of [125I]-DTyr6-His5-GnRH from human type 1 GnRH receptor expressed in HEK293 cell membranes after 16 to 19 hrs by gamma counting analysis
T1 sequence (whole entry): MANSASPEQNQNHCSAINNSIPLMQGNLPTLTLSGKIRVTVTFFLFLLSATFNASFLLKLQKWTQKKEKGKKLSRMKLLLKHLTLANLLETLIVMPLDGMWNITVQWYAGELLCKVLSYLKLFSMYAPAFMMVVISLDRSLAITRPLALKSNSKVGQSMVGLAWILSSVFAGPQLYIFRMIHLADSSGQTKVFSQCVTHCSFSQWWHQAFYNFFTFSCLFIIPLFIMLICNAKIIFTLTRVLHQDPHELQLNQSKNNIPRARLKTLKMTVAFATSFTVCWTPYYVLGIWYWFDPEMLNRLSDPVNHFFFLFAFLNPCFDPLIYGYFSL

[2] = biological target: T2, Gonadotropin-releasing hormone receptor (Homo sapiens, UniProt P30968); assay: as §1
T2 sequence (P30968 whole entry): T1 sequence (whole entry)

[3] = Metabolic stability in rat plasma at 100 uM after 4 hrs by HPLC/mass spectrometric analysis relative to GnRH1; assay type: ADME, cell-free; settings: read-out: Stability
[4] = Metabolic stability in rat plasma assessed as half life at 100 uM by HPLC/mass spectrometric analysis; assay type: ADME, cell-free
HEK293 = assay: Antiproliferative activity against HEK293 cells expressing human type 1 GnRH receptor at 1 uM after 4 days by MTT assay; assay type: functional, cell-based
[5] = Metabolic stability in rat plasma at 100 uM after 4 hrs by HPLC/mass spectrometric analysis relative to GnRH2; assay type: ADME, cell-free; settings: read-out: Stability

| Compound | Activity [1] | IC50 [2] [nM] | remaining at 4 h, 100 µM [3] [%] | half-life at 100 µM [4] [h] | Activity (HEK293) | remaining at 4 h, 100 µM [5] [%] |
| --- | --- | --- | --- | --- | --- | --- |
| NC(=O)CNC(=O)[C@H]1CCCN1C(=O)[C@H](Cc1ccc(O)cc1)NC(=O)[C@H](Cc1c[nH]c2ccccc12)NC(=O)C1(NC(=O)[C@@H](Cc2cnc[nH]2)NC(=O)[C@@H](CO)NC(=O)[C@@H](Cc2c[nH]c3ccccc23)NC(=O)[C@@H](Cc2c[nH]cn2)NC(=O)[C@H]2CCC(=O)N2)CCCC1 | Dose-dependent effect | 282 | – | – | – | – |
| NC(=O)CNC(=O)[C@H]1CCCN1C(=O)[C@H](Cc1ccc(O)cc1)NC(=O)[C@H](Cc1c[nH]c2ccccc12)NC(=O)C1(NC(=O)[C@@H](Cc2cnc[nH]2)NC(=O)[C@@H](CO)NC(=O)[C@@H](Cc2c[nH]c3ccccc23)NC(=O)[C@@H](Cc2c[nH]cn2)NC(=O)[C@H]2CCC(=O)N2)CCC1 | Dose-dependent effect | 191 | – | – | – | – |
| CC(C)C[C@H](NC(=O)C1(NC(=O)[C@H](Cc2ccc(O)cc2)NC(=O)[C@H](CO)NC(=O)[C@H](Cc2c[nH]c3ccccc23)NC(=O)[C@H](Cc2c[nH]cn2)NC(=O)[C@@H]2CCC(=O)N2)CCCCC1)C(=O)N[C@@H](CCCNC(=N)N)C(=O)N1CCC[C@H]1C(=O)NCC(N)=O | Dose-dependent effect | 550 | 15 | 3.96 | – | – |
| CC(C)C[C@H](NC(=O)C1(NC(=O)[C@H](Cc2ccc(O)cc2)NC(=O)[C@H](CO)NC(=O)[C@H](Cc2c[nH]c3ccccc23)NC(=O)[C@H](Cc2c[nH]cn2)NC(=O)[C@@H]2CCC(=O)N2)CCCC1)C(=O)N[C@@H](CCCNC(=N)N)C(=O)N1CCC[C@H]1C(=O)NCC(N)=O | Dose-dependent effect | 589 | – | – | – | – |
| CC(C)C[C@H](NC(=O)CN1CN(c2ccccc2)C2(CCN(C(=O)[C@H](Cc3c[nH]c4ccccc34)NC(=O)[C@H](Cc3c[nH]cn3)NC(=O)[C@@H]3CCC(=O)N3)CC2)C1=O)C(=O)N[C@@H](CCCNC(=N)N)C(=O)N1CCC[C@H]1C(=O)NCC(N)=O | Dose-dependent effect | 724 | – | – | – | – |
| CC(C)C[C@H](NC(=O)CNC(=O)[C@H](Cc1ccc(O)cc1)NC(=O)[C@H](CO)NC(=O)[C@H](Cc1c[nH]c2ccccc12)NC(=O)[C@H](Cc1cnc[nH]1)NC(=O)[C@@H]1CCC(=O)N1)C(=O)N[C@@H](CCCNC(=N)N)C(=O)N1CCC[C@H]1C(=O)NCC(N)=O [GONADORELIN] | – | – | – | 2.63 | – | – |
| NC(=O)CNC(=O)[C@@H]1CCCN1C(=O)[C@@H](Cc1ccc(O)cc1)NC(=O)[C@@H](Cc1c[nH]c2ccccc12)NC(=O)C1(NC(=O)[C@H](Cc2cnc[nH]2)NC(=O)[C@H](CO)NC(=O)[C@H](Cc2c[nH]c3ccccc23)NC(=O)[C@H](Cc2c[nH]cn2)NC(=O)[C@@H]2CCC(=O)N2)CCCCC1 | Dose-dependent effect | 407 | – | – | Active | 15 |
| CCNC(=O)[C@@H]1CCCN1C(=O)[C@H](CCCNC(=N)N)NC(=O)[C@H](CC(C)C)NC(=O)[C@@H](CC(C)C)NC(=O)[C@H](Cc1ccc(O)cc1)NC(=O)[C@H](CO)NC(=O)[C@H](Cc1c[nH]c2ccccc12)NC(=O)[C@H](Cc1c[nH]cn1)NC(=O)[C@@H]1CCC(=O)N1 | – | – | – | – | Active | – |
